Measurements published in patent US7968548B2, “Melanocortin receptor-specific piperazine compounds with diamine groups” (Palatin Technologies, Inc., priority 2005, dated 2011).

What was measured:
MC5-R = target: T1, MC5-R (Homo sapiens, UniProt P33032); test: Competitive inhibition binding assay using [I125]-NDP-α-MSH, HEK-293 membranes, recombinant hMC5-R; details: for inhibition at 1 µM: 1 μM compound
T1 construct: expressed in transfected cells; host or cells: HEK-293
Method: (§1) A competitive inhibition binding assay was performed using membrane homogenates prepared from HEK-293 cells that express recombinant hMC4-R, hMC3-R, or hMC5-R, and from B-16 mouse melanoma cells (containing endogenous MC1-R). In some instances, HEK-293 cells that express recombinant hMC1-R were employed. In the examples that follow, all MC3-R, MC4-R and MC5-R values are for human recombinant receptors. MC1-R values are for B-16 mouse melanoma cells, unless the heading is “hMC1-R”, in which case the value is for human recombinant MC1-R. Assays were performed in 96 well GF/B Millipore multiscreen filtration plates (MAFB NOB10) pre-coated with 0.5% bovine serum albumin (Fraction V). […] After incubation for 60 minutes at 37° C., the assay mixture was filtered and the membranes washed three times with ice-cold buffer. Filters were dried and counted in a gamma counter for bound radioactivity. […] Maximal specific binding (100%) was defined as the difference in radioactivity (cpm) bound to cell membranes in the absence and presence of 1 μM NDP-α-MSH. […] Each assay was conducted in triplicate and the actual mean values are described, with results less than 0% reported as 0%. Ki values for test compounds were determined using Graph-Pad Prism® curve-fitting software.

MC1-R = target: T2, MC1-R (Mus musculus, UniProt Q01727); test: Competitive inhibition binding assay using [I125]-NDP-α-MSH, B-16 mouse melanoma cell membranes; details: B-16 mouse melanoma cells; for inhibition at 1 µM: 1 μM compound
T2 construct: from B-16 mouse melanoma cells (containing endogenous MC1-R); endogenous in cells; host or cells: B-16 mouse melanoma cells (membrane homogenates)
Method: as §1

MC4-R = MC4-R (Homo sapiens, UniProt P32245); test: Competitive inhibition binding assay using [I125]-NDP-α-MSH, HEK-293 membranes, recombinant hMC4-R; design: expressed in transfected cells; host or cells: HEK-293; details: for inhibition at 1 µM: 1 μM compound
Method: as §1

MC3-R = target: T3, MC3-R (Homo sapiens, UniProt P41968); test: Competitive inhibition binding assay using [I125]-NDP-α-MSH, HEK-293 membranes, recombinant hMC3-R; details: for inhibition at 1 µM: 1 μM compound
T3 construct: expressed in transfected cells; host or cells: HEK-293
Method: as §1

hMC1-R = target: T4, hMC1-R (Homo sapiens, UniProt Q01726); test: Competitive inhibition binding assay using [I125]-NDP-α-MSH, HEK-293 membranes, recombinant hMC1-R; details: human recombinant MC1-R; for inhibition at 1 µM: 1 μM compound
T4 construct: expressed in transfected cells; host or cells: HEK-293
Method: as §1

[1] = Mouse model IN feeding studies (body weight); type: in vivo; details: 20 hours
Method: Food intake and body weight after IN and IP dosing. Changes in food intake and body weight were evaluated for selected compounds. Male C57BL/6 mice were obtained from Jackson labs (Bar Harbor, Me.). Animals were individually housed in conventional plexiglass hanging cages and maintained on a controlled 12 hour on/off light cycle. Water and pelleted (Harlan Teklad 2018 18% Protein Rodent Diet) food was provided ad libitum. The mice were dosed IP (by intraperitoneal injection) after a 24 hour fast or IN (by intranasal administration) with vehicle or selected compounds (0.1-3 mg/kg, and in some cases up to 10 mg/kg). All animals were dosed once a day (or up to four consecutive days) at the start of the “lights off” period. The changes in food intake for the 4 hour and 20 hour period after dosing relative to control animals administered vehicle were determined. Body weights were determine 4 hours prior to dosing and 20 hours after dosing, and the change in body weight relative to control animals administered vehicle were determined.

T2 sequence (Q01727 whole entry): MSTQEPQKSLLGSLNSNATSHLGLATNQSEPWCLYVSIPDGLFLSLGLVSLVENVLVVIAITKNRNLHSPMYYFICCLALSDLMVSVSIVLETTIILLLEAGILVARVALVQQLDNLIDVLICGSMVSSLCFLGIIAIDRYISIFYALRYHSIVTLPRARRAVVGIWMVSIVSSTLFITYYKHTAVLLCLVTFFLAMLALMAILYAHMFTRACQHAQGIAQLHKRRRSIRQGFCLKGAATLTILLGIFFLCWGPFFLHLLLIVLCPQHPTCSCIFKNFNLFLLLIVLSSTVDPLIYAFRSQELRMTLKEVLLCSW
T4 sequence (Q01726 whole entry): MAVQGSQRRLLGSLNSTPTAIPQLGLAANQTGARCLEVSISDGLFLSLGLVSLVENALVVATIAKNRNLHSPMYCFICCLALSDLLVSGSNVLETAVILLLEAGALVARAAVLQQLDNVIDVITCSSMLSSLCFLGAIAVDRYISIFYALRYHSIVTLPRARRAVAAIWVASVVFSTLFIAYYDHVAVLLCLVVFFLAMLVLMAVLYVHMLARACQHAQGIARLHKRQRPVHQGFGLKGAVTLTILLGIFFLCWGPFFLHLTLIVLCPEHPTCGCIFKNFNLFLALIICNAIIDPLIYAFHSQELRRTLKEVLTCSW
T3 sequence (P41968 whole entry): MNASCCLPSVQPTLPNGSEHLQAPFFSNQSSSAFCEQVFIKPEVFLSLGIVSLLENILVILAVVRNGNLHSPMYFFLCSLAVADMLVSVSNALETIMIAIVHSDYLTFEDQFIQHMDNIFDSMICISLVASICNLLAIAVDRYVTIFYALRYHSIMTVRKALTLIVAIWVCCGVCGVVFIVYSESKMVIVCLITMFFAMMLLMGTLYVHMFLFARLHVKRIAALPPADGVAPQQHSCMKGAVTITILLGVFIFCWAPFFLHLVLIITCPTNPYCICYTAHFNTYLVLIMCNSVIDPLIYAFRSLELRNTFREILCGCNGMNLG
Sequence of MC4-R (P32245 whole entry): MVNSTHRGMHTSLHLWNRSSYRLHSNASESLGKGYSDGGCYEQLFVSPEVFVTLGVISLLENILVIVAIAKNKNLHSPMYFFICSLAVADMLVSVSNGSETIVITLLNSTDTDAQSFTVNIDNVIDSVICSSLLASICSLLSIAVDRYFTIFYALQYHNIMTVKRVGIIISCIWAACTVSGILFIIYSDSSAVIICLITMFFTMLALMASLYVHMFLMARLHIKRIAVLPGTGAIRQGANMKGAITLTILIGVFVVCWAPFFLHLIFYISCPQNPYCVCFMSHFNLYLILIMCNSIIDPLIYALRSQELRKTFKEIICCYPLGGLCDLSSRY
T1 sequence (P33032 whole entry): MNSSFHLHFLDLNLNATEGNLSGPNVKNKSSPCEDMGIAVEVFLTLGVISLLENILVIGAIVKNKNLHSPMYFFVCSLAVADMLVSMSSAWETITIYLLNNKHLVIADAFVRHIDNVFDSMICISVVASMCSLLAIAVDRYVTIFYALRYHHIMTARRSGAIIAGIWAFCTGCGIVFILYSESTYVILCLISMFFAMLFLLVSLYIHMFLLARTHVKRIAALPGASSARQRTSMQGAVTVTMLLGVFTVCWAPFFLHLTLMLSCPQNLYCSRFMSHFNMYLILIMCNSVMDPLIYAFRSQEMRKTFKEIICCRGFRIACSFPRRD

SMILES	Ki (MC5-R) [nM]	inhibition at 1 µM (MC5-R) [%]	inhibition at 1 µM (MC1-R) [%]	Ki (MC1-R) [nM]	Ki (MC4-R) [nM]	inhibition at 1 µM (MC4-R) [%]	Ki (MC3-R) [nM]	inhibition at 1 µM (MC3-R) [%]	inhibition at 1 µM (hMC1-R) [%]	Ki (hMC1-R) [nM]	average decrease in body weight compared to control animals ([1]; 0.1 mg/kg) [%]	average decrease in body weight compared to control animals ([1]; 0.3 mg/kg) [%]	average decrease in body weight compared to control animals ([1]; 1 mg/kg) [%]
Cc1ccc(C[C@@H](N)CN2C[C@@H](C)N(C(=O)Cc3ccc4ccccc4c3)C[C@@H]2CCCNCCN)c(C)c1 [Example 3]	20	94	41	660	160	92	320	82					
Cc1ccc(C[C@@H](N)CN2C[C@@H](C)N(C(=O)Cc3ccc4ccccc4c3)C[C@@H]2CCCN2CCNCC2)c(C)c1 [Example 4]		97	12			55		43					
Cc1ccc(C[C@@H](N)CN2C[C@@H](C)N(C(=O)Cc3ccc4ccccc4c3)C[C@@H]2CCCNC2CCNC2)c(C)c1 (stereo partly drawn) [Example 5, 1-{(2R,5S)-4-[(R)-2-Amino-3-(2,4-dimethyl-phenyl)-propyl]-2-methyl-5-[3-(pyrrolidin-3-ylamino)-propyl]-piperazin-1-yl}-2-naphthalen-2-yl-ethanone]	31	96	41	685	387	81	395	75					
Cc1ccc(C[C@@H](N)CN2C[C@@H](C)N(C(=O)Cc3ccc4ccccc4c3)C[C@@H]2CCCNC2CCCCC2N)c(C)c1 (stereo partly drawn) [Example 6, 1-{(2R,5S)-5-[3-(2-Amino-cyclohexylamino)-propyl]-4-[(R)-2-amino-3-(2,4-dimethyl-phenyl)-propyl]-2-methyl-piperazin-1-yl}-2-naphthalen-2-yl-ethanone]	38	98	33	580	255	88	535	47					
Cc1ccc(C[C@H](CN2C[C@@H](C)N(C(=O)Cc3ccc4ccccc4c3)C[C@@H]2CCCN(C)C2CCN(C)C2)N(C)C)c(C)c1 (stereo partly drawn) [Example 7, 1-((2R,5S)-4-[(R)-2-Dimethylamino-3-(2,4-dimethyl-phenyl)-propyl]-2-methyl-5-{3-[methyl-(1-methyl-pyrrolidin-3-yl)-amino]-propyl}-piperazin-1-yl)-2-aphthalen-2-yl-ethanone]		44	4			56		0					
Cc1ccc(C[C@H](CN2C[C@@H](C)N(C(=O)Cc3ccc4ccccc4c3)C[C@@H]2CCCN(C)C2CCCCC2N(C)C)N(C)C)c(C)c1 (stereo partly drawn) [Example 8]		48	26			52		28					
Cc1ccc(C[C@H](CN2C[C@@H](C)N(C(=O)Cc3ccc4ccccc4c3)C[C@@H]2CCCN(C)CCN(C)C)N(C)C)c(C)c1 [Example 9, 1-((2R,5S)-4-[(R)-2-Dimethylamino-3-(2,4-dimethyl-phenyl)-propyl]-5-{3-[(2-dimethylamino-ethyl)-methyl-amino]-propyl}-2-methyl-piperazin-1-yl)-2-naphthalen-2-yl-ethaone]		51	0			49		9					
CC(C)C[C@@H]1CN(C(=O)[C@H](N)Cc2ccc(Cl)cc2Cl)[C@@H](CCCNCCN)CN1C(=O)[C@H](N)Cc1ccc(Cl)cc1Cl [Example 12, (R)-2-Amino-1-{(2R,5S)-4-[(R)-2-amino-3-(2,4-dichloro-phenyl)-propionyl]-5-[3-(2-amino-ethylamino)-propyl]-2-isobutyl-piperazin-1-yl}-3-(2,4-dichloro-phenyl)-propan-1-one]		55			44	89	574	41	23	309	0.7	3.1	
CC(C)C[C@@H]1CN(C(=O)[C@H](N)Cc2ccc3ccccc3c2)[C@@H](CCCNCCN)CN1C(=O)[C@H](N)Cc1ccc2ccccc2c1 [Example 13, (R)-2-Amino-1-[(2R,5S)-5-[3-(2-amino-ethylamino)-propyl]-4-((R)-2-amino-3-naphthalen-2-yl-propionyl)-2-isobutyl-piperazin-1-yl]-3-naphthalen-2-yl-propan-1-one]		57			13	96	127	79	40	135	1	3	3.2
CC(C)C[C@@H]1CN(C(=O)[C@H](N)Cc2ccc3ccccc3c2)[C@@H](CCCCNCCN)CN1C(=O)[C@H](N)Cc1ccc2ccccc2c1 [Example 20, (R)-2-Amino-1-[(2R,5S)-5[4-(2-amino-ethylamino)-butyl]-4-((R)-2-amino-3-naphthalen-2-yl-propionyl)-2-isobutyl-piperazin-1-yl]-3-naphthalen-2-yl-propan-1-one]	253	49			9	99	321	62	68	215	1.2	3	
CC(C)C[C@@H]1CN(C(=O)[C@H](N)Cc2ccc(Cl)c(Cl)c2)[C@@H](CCCCNCCN)CN1C(=O)[C@H](N)Cc1ccc(Cl)c(Cl)c1 [Example 22, (R)-2-Amino-1-{(2R,5S)-4-[(R)-2-amino-3-(3,4-dichloro-phenyl)-propionyl]-5-[4-(2-amino-ethylamino)-butyl]-2-isobutyl-piperazin-1-yl}-3-(3,4-dichloro-phenyl)-propan-1-one]	179				4		69			116	0.6	4.9	
NCCNCCCC[C@H]1CN(C(=O)[C@H](N)Cc2ccc3ccccc3c2)[C@H](CC2CCCCC2)CN1C(=O)[C@H](N)Cc1ccc2ccccc2c1 [Example 23, (R)-2-Amino-1-[(2R,5S)-5-[4-(2-amino-ethylamino)-butyl]-4-((R)-2-amino-3-naphthalen-2-yl-propionyl)-2-cyclohexylmethyl-piperazin-1-yl]-3-naphthalen-2-yl-propan-1-one]	103				20		435			153	1.6	2.6	
CC(C)C[C@@H]1CN(C[C@H](N)Cc2ccc(Cl)cc2Cl)[C@@H](CCCNCCCCN)CN1C(=O)Cc1ccc2ccccc2c1 [Example 30, 1-{(2R,5S)-5-[3-(4-Amino-butylamino)-propyl]-4-[(R)-2-amino-3-(2,4-dichloro-phenyl)-propyl]-2-isobutyl-piperazin-1-yl}-2-naphthalen-2-yl-ethanone]		84				91		65	37				
CC(C)C[C@@H]1CN(C[C@H](N)Cc2ccc(Cl)cc2Cl)[C@@H](CCCNCCCCCN)CN1C(=O)Cc1ccc2ccccc2c1 [Example 31, 1-{(2R,5S)-4-[(R)-2-Amino-3-(2,4-dichloro-phenyl)-propyl]-5-[3-(5-amino-pentylamino)-propyl]-2-isobutyl-piperazin-1-yl}-2-naphthalen-2-yl-ethanone]		87				91		59	36				
CC(C)C[C@@H]1CN(C[C@@H](Cc2ccc(Cl)cc2Cl)N(C)C)[C@@H](CCCN(C)CCN)CN1C(=O)Cc1ccc2ccccc2c1 [Example 32, 1-{(2R,5S)-5-{3-[(2-Amino-ethyl)-methyl-amino]-propyl}-4-[(R)-3-(2,4-dichloro-phenyl)-2-dimethylamino-propyl]-2-isobutyl-piperazin-1-yl}-2-naphthalen-2-yl-ethanone]		65				91		43	25				
